Experimental data published in patent EP3782622A1, “ADENOSINE A2B RECEPTOR AGONIST FOR THE TREATMENT OF MUSCU[…]” (Rheinische Friedrich-Wilhelms-Universität Bonn, priority 2019, dated 2021).

What was measured:
[1] = tested on: humanen Skelettmuskel-Explantaten; experiment: Endogenous respiration (Oxygraph 2K): oxygen consumption of human skeletal muscle explants; assay type: cell-based; details: treated 15 min before measurement
Experimental: (§1) Skelettmuskelzellen oder -gewebe wurden 15 Minuten vor den […] Messungen wie angegeben behandelt (Oxygraph 2K; Oroboros Instruments). Die Proben wurden in die Oxygraphenkammer mit 2 ml Inkubationsmedium (0,5 mM Ethylenglycol-bis(aminoethylether)-N,N,N',N'-tetraessigsäure (EGTA), 3 mM MgCl2 · 6 H2O, 60 mM K-Lactobionat, 20 mM Taurin, 10 mM KH2PO4, 20 mM 2-(4-(2-Hydroxyethyl)-1-piperazinyl)-ethansulfonsäure (HEPES), 110 mM Saccharose und 1 g/l Bovines Serumalbumin (BSA), pH 7,1) gebracht. In vitro-Atmungswerte wurden bei Erreichen eines stationären Zustandes aufgezeichnet, gefolgt von der Zugabe von Substraten (Zustand 1: endogen; Zustand 2: Adenosindiphosphat (ADP); Zustand 3: Succinat; Zustand 4: Oligomycin; entkoppelt: 2,4-dinitrophenol, carbonylcyanide p-trifluoromethoxyphenyl-hydrazine (FCCP)). Die Atmungsraten wurden auf den Gesamtproteingehalt normalisiert.

murinem Muskelgewebe = experiment: Endogenous respiration (Oxygraph 2K): oxygen consumption of murine muscle tissue ex vivo; assay type: cell-based, murin; details: Abbildung 2
Experimental: as §1

[2] = tested on: primären humanen Skelettmuskelzellen; experiment: Endogenous respiration (Oxygraph 2K): oxygen consumption of primary human skeletal muscle cells; assay type: cell-based
Experimental: as §1

[3] = tested on: primäre humane Skelettmuskelzellen; experiment: Glucose uptake test (abcam kit ab136956); assay type: cell-based; details: primary human skeletal muscle cells, Abbildung 5
Text: Die Glukoseaufnahme wurde mit murinen und humanen SKM-Zellen unter Verwendung des Glukoseaufnahmekits von abcam (ab136956) (abcam plc., Cambridge, UK) nach Herstellerangaben gemessen.

Mäusen [4] = experiment: Muscle mass in mice after treatment (muscle analysis/sarcopenia); assay type: in vivo, Mäuse; details: Abbildung 6; for Muskelmasse: mice, 1 mg/kg intraperitoneal once daily for four weeks
Text: (§2) WT männliche C57BL/6 Mäuse wurden von Janvier gekauft. A2B-/- Mäuse wurden von M. Idzko, Freiburg, Deutschland, zur Verfügung gestellt. ATA2B-KO (A2Bfloxed/floxed;AdipoCre+) und Con-A2B (A2Bfloxed/floxed;AdipoCre-) Mäuse wurden durch Züchtung von A2Bfloxed/floxed Mäusen (erzeugt von Holger K. Eltzschig) mit Adiponectin-Cre (Jackson Laboratories) Mäusen zur Herstellung von A2Bfloxed;AdipoCre+ heterozygoten Mäusen erzeugt. Heterozygote Mäuse wurden mit A2Bfloxed/floxed gezüchtet. Männliche Wurfgeschwister wurden zufällig experimentellen Gruppen zugeordnet. Halbfettdiät (HFD, 60% Energie aus Fett) und Kontrolldiät wurden von ssniff Spezialdiäten GmbH (Soest, DE) gekauft. Mäuse wurden in einem täglichen Zyklus von 12 Stunden Licht (0600 bis 1800) und 12 Stunden Dunkelheit (1800 bis 0600) bei 23 ± 1°C gehalten und erhielten freien Zugang zu Futter und Wasser. Für die Muskelanalyse/Sarkopenie wurden Mäusen vier Wochen lang einmal täglich intraperitoneal mit 1 mg/kg 2-({6-Amino-3,5-dicyano-4-[4-(cyclopropylmethoxy)-phenyl]-pyridin-2-yl}sulfanyl)-acetamid (Bay 60-6583) injiziert.

Mäusen [5] = experiment: Muscle strength of mice after treatment; assay type: in vivo, Mäuse; details: Abbildung 8; for Muskelkraft: mice
Text: as §2
Extensor digitorum longus (EDL) Muskeln aus den Hinterbeinen von Mäusen wurden von Sehne zu Sehne isoliert, in eine wässrige Pufferlösung aus Krebs-Puffer (118 mM NaCl, 3,4 mM KCl, 0,8 mM MgSO4, 1,2 mM KH2PO4, 11,1 mM Glukose, 25 mM NaHCO3, 2,5 mM CaCl2) getaucht und bei Raumtemperatur mit Carbogen (ein Gasgemisch aus 5 Volumenteilen Kohlenstoffdioxid (CO2) und 95 Volumenteilen Sauerstoff (O2)) umspült. Die Muskeln wurden zwischen der Klemme eines Hebelarms und dem Haken eines Kraftaufnehmers eines Myographen (SI Instruments) ausgerichtet. Dann wurden die Muskeln gedehnt, bis ein einzelner Impuls während einer Zuckungsstimulation die maximale Kraft hervorrief. Es wurden Zuckungsstimulationen (2 V, 1 ms) für […] aufgezeichnet und die Kraft gemessen. Die gesamte Muskelquerschnittsfläche wurde geschätzt, indem die Muskelmasse durch das Produkt aus der Muskellänge, dem Verhältnis von […] (0,44 bei EDL) und der Dichte des Säugetiermuskels (1,06 mg/mm^3) dividiert wurde. […]

Satellitenzellen = experiment: Isolation and amount of satellite cells from treated old mice; assay type: in vivo, Mäuse; details: 1 mg/kg once daily for four weeks
Text: as §2, with “injiziert. […]” for “injiziert.”

N#Cc1c(N)nc(SCC(N)=O)c(C#N)c1-c1ccc(OCC2CC2)cc1 [BAY 60-6583, 2-({6-Amino-3,5-dicyano-4-[4-(cyclopropylmethoxy)-phenyl]pyridin-2-yl}sulfanyl)-acetamid]
Sauerstoffverbrauch in Bezug auf die Gewebemasse ([1]; Abbildung 1): signifikant erhöht | Sauerstoffverbrauch in Bezug auf die Gewebemasse ([1]; Abbildung 1, listed as Bay 60-6583): signifikant gesteigert | Sauerstoffverbrauch (murinem Muskelgewebe): signifikant erhöht | Sauerstoffverbrauch in Bezug auf das veratmete Protein ([2]; Abbildung 4): signifikant erhöht | Sauerstoffverbrauch in Bezug auf das veratmete Protein ([2]; Abbildung 4, listed as Bay 60-6583): signifikant gesteigert | Aufnahme von Glukose [3]: signifikant erhöht | Aufnahme von Glukose ([3]; listed as Bay 60-6583): signifikant gesteigert | Muskelmasse (Mäusen [4]; 1 mg/kg): dem alterungsbedingten Verlust von Muskelmasse entgegenwirkt | Muskelmasse (Mäusen [4]; listed as Bay 60-6583, 1 mg/kg): signifikant gesteigert | Muskelmasse, treated aged mice compared with young controls (Mäusen [4]; treated aged (20 months) mice vs young (2 months) control animals): vergleichbare Muskelmasse wie junge (2 Monate alte) Kontrolltiere | Muskelkraft (Mäusen [5]): signifikant erhöht | Muskelkraft (Mäusen [5]; listed as Bay 60-6583): signifikant gesteigert | Muskelkraft, treated aged mice compared with young controls (Mäusen [5]; treated aged mice vs young control animals): so viel Kraft wie junge Kontrolltiere | Menge an Satellitenzellen (Satellitenzellen; Abbildung 9, 1 mg/kg): erhöht | Menge an Satellitenzellen (Satellitenzellen; Abbildung 9, listed as Bay 60-6583, 1 mg/kg): signifikant erhöht
